Data: patent publication US11246936B2, “Compositions and methods using rebaudioside X to provide sweetness enhancement” (The Coca-Cola Company, priority 2013, dated 2022)

What was measured:
[1] = tested on: panelists; experiment: Taste evaluation of lemon-lime carbonated soft drinks against HFCS-55 controls; type: in vivo, human
Procedure: Lemon-lime carbonated soft drinks (CSD) were made by dissolving all ingredients in an amount of water sufficient to make a syrup from which finished beverages were made by adding 5.5 parts carbonated water to 1 part syrup (beverage carbonation target of 3.7 volumes of CO2). Products were prepared with the ingredients provided in Table 8: The beverages were aged for seven days at room temperature and then cooled at 4° C. before tasting. Four panelists evaluated the beverages. Bottles were removed from the refrigerator and about 20 ml of beverage poured in 2 oz-plastic cups. Mineral water was given for palate rinsing before tasting and between tasting different samples.

[2] = tested on: human sense of taste; experiment: Sweetness recognition threshold; type: in vivo
Source text: The term “sweetness recognition threshold,” as generally used herein, is the lowest known concentration of a sweet compound that is perceivable by the human sense of taste. As such, rebaudioside X enhances or potentiates the sweet taste of sweeteners without providing any noticeable sweet taste by itself when present below its sweetness recognition threshold concentration. However, rebaudioside X may provide a detectable sweet taste at concentrations above its sweetness recognition threshold. The sweetness recognition threshold of rebaudioside X is about 20 to about 30 ppm.
The term “sucrose equivalence,” as used herein, refers to the sweetness of a composition containing at least one […] sweetener against a sucrose reference. Typically, taste panelists are trained to detect sweetness of reference sucrose solutions containing between 1-15% sucrose (w/v). Other non-sucrose sweeteners are then tasted at a series of dilutions to determine the concentration of the non-sucrose, i.e. rebaudioside X, sweetener that is as sweet (i.e. isosweet) to a given percent sucrose reference.

[3] = tested on: panelists; experiment: Taste evaluation of sweetness against sucrose reference beverages (water and citric acid buffer); type: in vivo, human
Procedure: Solutions were made by dissolving all ingredients in treated water. For citric acid buffer, citric acid and potassium citrate were added in a sufficient amount to bring the pH to 3.2. Finished products were filled in 300 ml-glass bottles and stored in the refrigerator. The Rebaudioside X used was 95% pure and obtained from Pure Circle. Beverages were kept in the refrigerator overnight and tasted cold the following day. Two panelists evaluated the beverages. Bottles were removed from the refrigerator and about 50 ml of the beverage was poured in 4 oz-plastic cups. Taste test were conducted in two sessions for each type of solution: water and citric acid buffer. In the first session, the sweetness level of the beverages containing 20 ppm and 30 ppm rebaudioside X were determined against the 0.5%, 1%, and 1.5% sucrose beverages. In the second session, the sweetness level of the beverages containing 7% sucrose and either 20 ppm or 30 ppm rebaudioside X were determined against the 7%, 8%, 9%, and 10% sucrose beverages. Panelists were given mineral water for rinsing before tasting and between tasting different samples. Unsalted crackers were also given to panelists to eat followed by rinsing their mouth with mineral water before tasting the next sample.

C=C1C[C@@]23CC[C@H]4[C@@](C)(CCC[C@@]4(C)C(=O)O[C@@H]4O[C@H](CO)[C@@H](O)[C@H](O[C@@H]5O[C@H](CO)[C@@H](O)[C@H](O)[C@H]5O)[C@H]4O[C@@H]4O[C@H](CO)[C@@H](O)[C@H](O)[C@H]4O)[C@@H]2CC[C@]1(O[C@@H]1O[C@H](CO)[C@@H](O)[C@H](O[C@@H]2O[C@H](CO)[C@@H](O)[C@H](O)[C@H]2O)[C@H]1O[C@@H]1O[C@H](CO)[C@@H](O)[C@H](O)[C@H]1O)C3 [rebaudioside X, 13-[(2-O-β-D-glucopyranosyl-3-O-β-D-glucopyranosyl-β-D-glucopyranosyl)oxy] ent kaur-16-en-19-oic acid-[(2-O-β-D-glucopyranosyl-3-O-β-D-glucopyranosyl-β-D-glucopyranosyl) ester]]
overall sweetness similar to HFCS-55 beverage ([1]; 8% HFCS-55 and 30 ppm rebaudioside X in lemon lime CSD, four panelists, 10% HFCS-55 same sweetness as 10% sucrose): about 10 % HFCS-55 | sweetness enhancement ([1]; 30 ppm rebaudioside X added to a beverage containing 8% HFCS-55 (same sweetness as 8% sucrose)): about 2.0% | sucrose equivalence provided at the sweetness recognition threshold ([2]; at about 20-30 ppm rebaudioside X): 1.0-1.5% | sweetness recognition threshold ([2]; lowest concentration perceivable by the human sense of taste): 20-30 ppm | overall sweetness similar to sucrose beverage ([3]; 7% sucrose and 20 ppm rebaudioside X in water or citric acid buffer, between the 9% and 10% sucrose beverage (average)): ~9.5 % sucrose | overall sweetness similar to sucrose beverage ([3]; 7% sucrose and 30 ppm rebaudioside X in either water or citric acid buffer): ~10 % sucrose | sweetness enhancement ([3]; 20 and 30 ppm rebaudioside X added to a beverage containing 7% sucrose): about 1.5% | increase in isosweetness provided by rebaudioside X ([3]; 20 ppm rebaudioside X in 7.0% (w/v) sucrose beverage): 2.5 % (w/v) | overall sweetness similar to sucrose beverage ([3]; 20 ppm rebaudioside X in either water or citric acid buffer (pH 3.2), two panelists, tasted cold): ~1 % sucrose | overall sweetness similar to sucrose beverage ([3]; 30 ppm rebaudioside X in either water or citric acid buffer (pH 3.2), two panelists, tasted cold): ~1.5 % sucrose | isosweet sucrose solution ([3]; beverage containing 7.0% (w/v) sucrose and 20 ppm rebaudioside X): 9.5 % (w/v) | isosweet sucrose solution ([3]; solution containing 20 ppm rebaudioside X, no other sweetener): 1.0 % (w/v)
